Laboratory results as given in patent US20190275324A1, “METHOD FOR TREATING OR PREVENTING A SICKLE-CELL DISEASE AND SYMPTOMS THEREOF” (DIAVEIN, priority 2016, published 2019).

Key:
[1] = tested on: patients with a severe vaso-occlusive crisis associated with sickle cell disease; assay: Clinical study of VEST in combination with NSAID for relief of pain in vaso-occlusive crisis (Example 6), 10-cm VAS for pain; format: in vivo, human; details: all groups also given Perfalgan and Tramadol
Description: The objective of the clinical study was to assess the efficacy of VEST in combination with non-steroid anti-inflammatory drugs to manage pain in adult and paediatric patients experimenting a severe vaso-occlusive crisis associated with sickle cell disease.
27 patients suffering from a sickle-cell disease and experimenting a severe vaso-occlusive crisis, with a pain score of at least 6 in the visual analog scale for pain (VAS pain), were enrolled in the study. The enrolled patients comprised 16 adults (of 19 to 35 years) and 11 children (of 8 to 17 years). 8 patients were of HbSS genotype, 19 patients were of HbSC genotype. The enrolled patients comprised 18 male subjects and 9 female subjects.
After their admission at the hospital, 15 patients received pain killer (Perfalgan) and (Tramadol) drugs and the NSAID Diclofenac and were subjected to VEST treatment for 4 hours, with two electrodes under each calf and two electrodes under each arm of the patient.
2 patients received Pain killer (Perfalgan) and (Tramadol) drug and were subjected to VEST treatment for 4 hours, with two electrodes under each calf and two electrodes under each arm of the patient. These patients were not administered with any NSAID. […]
Pain change in each patient was assessed with a 10-cm visual analog scale (VAS) for pain (e.g. as shown in FIG. 4) every two hours, during 6 hours after the beginning of VEST.

[2] = tested on: patients with acute vaso-occlusive crisis; details: after 4 hours; patients treated with morphine, Weiner et al.; cited from earlier work

SMILES	mean pain score in VAS ([1]; after 4 hours)	mean pain score in VAS ([1]; after 6 hours)	mean pain score in VAS [2]
O=C(O)Cc1ccccc1Nc1c(Cl)cccc1Cl [NSAID alone, Diclofenac]	6 cm	6 cm	
CN1CC[C@]23c4c5ccc(O)c4O[C@H]2[C@@H](O)C=C[C@H]3[C@H]1C5 [morphine]			higher than 6 cm
